Here are results for four substances from patent publication US20130012451A1, “COMPOSITIONS AND METHODS FOR INHIBITING MMP-9-MEDIATED CELL MIGRATION” (The Research Foundation of State University of New York, priority 2009, published 2013).

The target of one experiment is T1, CD44/MMP-9 heterodimer (Homo sapiens, UniProt P16070).
T1 construct: The MMP-9 cDNA containing the open reading frame of MMP-9 was amplified by a PCR approach; expressed in transfected cells; host or cells: COS-1 monkey kidney epithelial cells
Nature of the experiment: Co-immunoprecipitation assay of CD44/MMP-9 complex formation in transfected COS-1 cells. The class given is cell-based. The note with it: COS-1 cells transfected with CD44 and MMP-9 cDNAs, peptides for 30 minutes. The text has this: (§1) Procedures for Gelatin Substrate Zymography, Immunoblotting, Immunoprecipitation, Transwell Chamber Cell Migration and Phagokinetic Cell Migration Assays
(§2) Basic protocols for these techniques have been described previously (Cao et al., 1996; Dufour et al., 2008).
To further examine the importance of cross-talk between CD44 and MMP-9 in cell migration, an 8-amino acids peptide (SRPQGPFL) (SEQ ID NO: 2) was synthesized to mimic the outermost β-strand of the first blade of the MMP-9 PEX domain (IS4 peptide). As a control, a scrambled peptide with the same amino acids but rearranged in different order (GLSQPRFP) (SEQ ID NO: 35) was synthesized. COS-1 cells transfected with CD44 and MMP-9 cDNAs were treated with IS4 and IS4 scrambled peptides for 30 minutes followed by monitoring complex formations between CD44 and MMP-9 using a co-immunoprecipitation assay.

The target of another experiment is T2, MMP-9 homodimer (Homo sapiens, UniProt P14780).
T2 construct: The MMP-9 cDNA containing the open reading frame of MMP-9 was amplified by a PCR approach; by a site-directed mutagenesis approach using wild type MMP-9 as a template; expressed in transfected cells; host or cells: COS-1 monkey kidney epithelial cells
In words: Co-immunoprecipitation assay of MMP-9 homodimer formation in transfected COS-1 cells. The experiment is classed as cell-based.
Description: as §1, §2
COS-1 cells co-transfected with HA- and Myc-tagged MMP-9 cDNAs were then employed to examine homodimer formation using a co-immunoprecipitation approach. The HA-tagged MMP-9 proteins in the conditioned medium of transfected COS-1 cells were immunoprecipitated with anti-HA antibodies followed by a western blotting probed by anti-Myc antibodies. […] To further confirm this observation, the reciprocal co-immunoprecipitation was performed. Anti-Myc antibodies were employed to precipitate Myc-tagged MMP-9 complexes in the conditioned medium of co-transfected COS-1 cells followed by western blotting using anti-HA antibodies. This reciprocal approach confirms that MMP-9 does form a homodimer in the condition medium of transfected COS-1 cells.
(§3) One approach to blunt MMP-9 induced cell migration might be to target the herein discovered homodimer formation, which is a prerequisite for MMP-9-induced cell migration. Given the observation that the outermost β-strand of the fourth blade of the MMP-9 PEX domain is required for MMP-9 homodimerization formation, an 8-amino acids peptide (NQVDQVGY) (SEQ ID NO: 1) was synthesized to mimic the outer β-strand of blade IV of MMP-9 PEX domain (IVS4 peptide). As a control, a scrambled peptide with the same amino acids but rearranged in different order (VQYDNGQV) (SEQ ID NO: 51) was designed and synthesized. To test if IVS4 peptide blocked MMP-9 homodimer formation, COS-1 cells transfected with MMP-9 cDNA were treated with peptides for 30 minutes followed by a co-immunoprecipitation assay. […] To examine the potential therapeutic effect of this peptide, a transwell migration assay was performed. […] This IVS4 peptide, however, had no effect on cell migration induced by MT1-MMP, an integral membrane matrix metalloproteinase capable of stimulating cell migration (Cao et al., 2004).

Experiment [1] relates to cell migration induced by MT1-MMP. In words: Transwell migration assay, cell migration induced by MT1-MMP. The experiment is classed as cell-based.
Description: as §3

A further experiment relates to HT1080 cells. In words: Transwell chamber migration assay, HT1080 cells expressing endogenous MMP-9. The experiment is classed as cell-based, human. The note with it: 100 μM peptide, 6 h at 37° C. On the procedure: Human fibrosarcoma HT1080 cells are highly invasive and metastatic. […] Since this cell line produces endogenous MMP-9, the inventors sought to test if the MMP-9 IS4 and IVS4 peptides can be used to interfere with function of endogenous MMP-9. To this end, HT1080 cells were employed and cell migratory ability was evaluated using a Transwell chamber migration assay (FIG. 11). The cells were incubated with 100 μM of IS4 peptide (SRPQGPFL) (SEQ ID NO: 2), IS4 scrambled peptide (GLSQPRFP) (SEQ ID NO: 35), IVS4 peptide (NQVDQVGY) (SEQ ID NO: 1), IVS4 scrambled peptide (VQYDNGQV) (SEQ ID NO: 51), and a combination of IS4 and IVS4 peptides for 6 h at 37° C. 1% DMSO was used as a vehicle control. Migrated cells were microscopically counted. Each data point was performed in triplicate and the experiment was repeated three times (*P<0.05). […] While not limiting the invention to any particular mechanism, it is the inventors' view that this is potentially because both inhibitory peptides target the same molecule.

In experiment [2] the test system is MMP-9-induced cell migration of transfected COS-1 cells. The note with it: for MMP-9-induced cell migration: transwell chamber migration assay for 6 hours, MMP-9 transfected COS-1 cells.
Description: (P-values reflect comparison with MMP-9 transfected cells: *P<0.05). […] COS-1 cells transfected with an empty vector or MMP-9 cDNAs were examined by a transwell chamber migration assay for 6 hours in the presence of DMSO control, specific and scramble peptides at different concentration. Each data point was performed in triplicate and the experiments was repeated three times (*P<0.05).
Transfection of plasmid DNA in COS-1 cells was achieved using polyethylenimine (Polysciences) or Transfectin™ reagents (Bio-Rad) and the transfected cells were incubated for 48 h at 37° C. followed by biochemical and biological assays.
Experiment [3] concerns MMP9/PEXMMP-2/Myc transfected COS-1 cells. Nature of the experiment: Transwell migration assay, COS-1 cells transfected with MMP9/PEXMMP-2/Myc. The note with it: co-expression of TIMP. The class given is cell-based, monkey. The text has this: FIG. 3. TIMP-1 interferes with MMP-9 homodimerization. (A) TIMP-1, but not TIMP-2 interferes with MMP-9 dimerization in transfected COS-1 cells examined by a co-immunoprecipitation assay for conditioned medium and cell lysates (upper and middle panels), and immunoblotting for α/β tubulin (lower panel, loading control). (B) TIMP-1 co-precipitated with MMP-9 in both the lysate and the conditioned medium of transfected COS-1 cells examined by a co-immunoprecipitation assay. (C) MMP-9 chimera substituting the PEX domain with the corresponding MMP-2 interacts with TIMP-2 in transfected COS-1 cells, but not wild type MMP-9. (D) COS-1 cells transfected with corresponding cDNAs were subjected to a transwell migration assay. Three triplicated repeats were performed for each transfection. *P<0.05.
The role of TIMP-1 in interfering with MMP-9 homodimer formation remains controversial (Goldberg et al., 1992; Olson et al., 2000). This discrepancy led us to reevaluate the specific interference of TIMP-1 on proMMP-9 homodimer formation using the biochemical approach described above. […]

“Also recorded” adds a separate entry of the source. Where two headings read alike, the source gives them in different places. Where no end group is shown, it is not given here.

T1 sequence (P16070 21-742, one chain of several): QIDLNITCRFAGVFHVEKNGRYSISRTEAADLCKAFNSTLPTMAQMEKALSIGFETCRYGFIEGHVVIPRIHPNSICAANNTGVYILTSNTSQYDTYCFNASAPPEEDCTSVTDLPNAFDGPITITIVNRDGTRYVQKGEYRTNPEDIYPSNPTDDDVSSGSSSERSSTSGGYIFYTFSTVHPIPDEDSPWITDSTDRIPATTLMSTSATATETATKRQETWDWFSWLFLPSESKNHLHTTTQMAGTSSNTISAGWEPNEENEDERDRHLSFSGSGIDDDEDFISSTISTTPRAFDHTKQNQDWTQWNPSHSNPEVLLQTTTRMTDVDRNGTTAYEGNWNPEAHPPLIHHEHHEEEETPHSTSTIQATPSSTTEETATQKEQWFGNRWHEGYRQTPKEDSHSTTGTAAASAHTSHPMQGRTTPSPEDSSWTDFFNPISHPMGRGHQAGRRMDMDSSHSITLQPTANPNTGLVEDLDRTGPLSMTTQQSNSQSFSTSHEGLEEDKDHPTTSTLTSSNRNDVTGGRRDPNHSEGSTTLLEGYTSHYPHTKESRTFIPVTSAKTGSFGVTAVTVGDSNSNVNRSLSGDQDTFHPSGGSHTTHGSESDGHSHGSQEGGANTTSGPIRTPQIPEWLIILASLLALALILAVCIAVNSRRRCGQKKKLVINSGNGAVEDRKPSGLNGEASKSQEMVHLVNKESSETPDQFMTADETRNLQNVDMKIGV
T2 sequence (P14780 20-707 limits assumed): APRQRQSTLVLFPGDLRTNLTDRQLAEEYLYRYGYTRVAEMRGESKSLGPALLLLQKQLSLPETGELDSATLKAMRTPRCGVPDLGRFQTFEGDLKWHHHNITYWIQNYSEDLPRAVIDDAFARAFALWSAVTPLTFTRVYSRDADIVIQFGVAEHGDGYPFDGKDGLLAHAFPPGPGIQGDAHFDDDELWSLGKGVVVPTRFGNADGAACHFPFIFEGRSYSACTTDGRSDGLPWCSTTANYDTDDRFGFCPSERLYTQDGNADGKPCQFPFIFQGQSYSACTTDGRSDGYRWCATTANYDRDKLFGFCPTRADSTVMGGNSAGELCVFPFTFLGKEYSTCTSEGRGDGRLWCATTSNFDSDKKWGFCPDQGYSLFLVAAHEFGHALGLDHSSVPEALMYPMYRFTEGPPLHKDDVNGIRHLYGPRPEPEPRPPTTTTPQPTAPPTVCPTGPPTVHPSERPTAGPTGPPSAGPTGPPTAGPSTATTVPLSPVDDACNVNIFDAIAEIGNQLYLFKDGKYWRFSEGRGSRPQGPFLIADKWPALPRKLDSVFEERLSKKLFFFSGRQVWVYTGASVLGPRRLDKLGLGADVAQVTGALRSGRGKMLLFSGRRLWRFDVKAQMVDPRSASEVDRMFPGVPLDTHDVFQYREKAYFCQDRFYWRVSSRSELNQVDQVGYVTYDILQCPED

“GLSQPRFP [IS4 scrambled peptide, control scrambled peptide with the same amino acids as IS4 rearranged in different order, reference compound]”: the CD44/MMP-9 heterodimer formation entry with CD44/MMP-9 heterodimer is reported as “minimal effect”.

As to NQVDQVGY [IVS4 peptide, NQVDQVGY], the MMP-9 homodimer formation entry at MMP-9 homodimer (COS-1 cells transfected with MMP-9 cDNA, treated with peptides for 30 minutes, co-immunoprecipitation) is listed as “efficiently blocked”; on MMP-9 homodimer (COS-1 cells transfected with MMP-9 cDNA, treated with peptides for 30 minutes, co-immunoprecipitation, listed as IVS4), “abrogates”. In addition, the “cell migration induced by MT1-MMP” value in experiment [1] was “no effect”. In the experiment with HT1080 cells, the HT1080 cell migration result is listed as “significantly reduced; also recorded: efficiently reduced”. For the same substance, the midpoint of inhibition in experiment [2], the IC50, lay at 50 µM. The MMP-9-induced cell migration entry in experiment [2] was “inhibited MMP-9-induced cell migration in a dose-dependent manner”; in experiment [2] (listed as IVS4), “efficiently reduced”; in experiment [2] (listed as IVS4 peptides) it was “Dose dependent inhibition”.

SRPQGPFL [IS4 peptide, SRPQGPFL]: the CD44/MMP-9 heterodimer formation entry on CD44/MMP-9 heterodimer is recorded as “interferes”. The HT1080 cell migration entry in the experiment on HT1080 cells (listed as IS4) is “significantly reduced; also recorded: efficiently reduced”. In addition, in experiment [2], inhibition was half-maximal at 12 µM (IC50). The MMP-9-induced cell migration result was “dose-dependent inhibition” in experiment [2], “efficiently reduced” in experiment [2] (listed as IS4) and “Dose-dependent inhibition” in experiment [2] (listed as IS4 peptides).

For the substance “TIMP-1: tissue inhibitor of metalloproteinases, co-expressed from cDNA in COS-1 cells”, the MMP-9 homodimer formation entry in the experiment with MMP-9 homodimer (co-expression of TIMP cDNA with proMMP-9/Myc and proMMP-9/HA cDNAs in COS-1 cells, conditioned media and cell lysate) is given as “interferes; also recorded: blocking”. For the same substance, the “MMP9/PEXMMP-2/Myc enhancement of COS-1 cell migration” value in experiment [3] is on record as “no apparent effect; also recorded: did not significantly inhibit”.
